Experimental data taken from ChEMBL document CHEMBL5634089, “Design, synthesis and evaluation of 2-pyrimidinylindole derivatives as anti-obesity agents by regulating lipid metabolism” (Eur J Med Chem, 2023).
Activity calls are given as the source filed them. The rule behind the calls is not given here.

Legend:
3T3-L1 [1] = experiment: Anti-adipogenic activity in mouse 3T3-L1 cells assessed as lipid-lowering activity at 1 uM measured after 9 days by Oil Red O staining based microplate reader analysis relative to control; type: functional; settings: time 9 day
3T3-L1 [2] = experiment: Anti-adipogenic activity in mouse 3T3-L1 cells assessed as lipid-lowering activity measured after 9 days by Oil Red O staining based microplate reader analysis; type: functional, cell-based; settings: 3T3-L1, 216 h
[3] = AUC (0 to t) in Sprague-Dawley rat at 2 mg/kg, iv administered for 24 hrs by LC-MS/MS analysis; type: ADME, organism-based; settings: in vivo
[4] = AUC (0 to infinity) in Sprague-Dawley rat at 2 mg/kg, iv administered for 24 hrs by LC-MS/MS analysis; type: ADME, organism-based; settings: in vivo
[5] = MRT (0 to t) in Sprague-Dawley rat at 2 mg/kg, iv administered for 24 hrs by LC-MS/MS analysis; type: ADME, organism-based; settings: in vivo
[6] = Half life in Sprague-Dawley rat at 20 mg/kg, po administered for 24 hrs by LC-MS/MS analysis; type: ADME, organism-based; settings: in vivo
[7] = AUC (0 to t) in Sprague-Dawley rat at 20 mg/kg, po administered for 24 hrs by LC-MS/MS analysis; type: ADME, organism-based; settings: in vivo
[8] = AUC (0 to infinity) in Sprague-Dawley rat at 20 mg/kg, po administered for 24 hrs by LC-MS/MS analysis; type: ADME, organism-based; settings: in vivo
[9] = MRT (0 to t) in Sprague-Dawley rat at 20 mg/kg, po administered for 24 hrs by LC-MS/MS analysis; type: ADME, organism-based; settings: in vivo
[10] = Apparent volume of distribution during terminal phase in Sprague-Dawley rat at 20 mg/kg, po administered for 24 hrs by LC-MS/MS analysis; type: ADME, organism-based; settings: in vivo, read-out: Vz/F
[11] = Apparent oral clearance in Sprague-Dawley rat at 20 mg/kg, po administered for 24 hrs by LC-MS/MS analysis; type: ADME, organism-based; settings: in vivo
[12] = Oral bioavailability (0 to t) in Sprague-Dawley rat at 20 mg/kg administered for 24 hrs by LC-MS/MS analysis; type: ADME, organism-based; settings: in vivo
[13] = Oral bioavailability (0 to infinity) in Sprague-Dawley rat at 20 mg/kg administered for 24 hrs by LC-MS/MS analysis; type: ADME, organism-based; settings: in vivo
Adipocyte = experiment: Anti-adipogenic activity against mouse […] Adipocytes assessed as lipid-lowering activity by Oil Red O staining based microplate reader analysis; type: functional, cell-based
Mus musculus [14] = experiment: Anti-obesity activity in high-fat and high-cholesterol diet induced C57BL/6J mouse assessed as reduction in triglyceride level at 20 mg/kg, ip administered every day for 6 weeks; type: functional, organism-based
Mus musculus [15] = experiment: Anti-obesity activity in high-fat and high-cholesterol diet induced C57BL/6J mouse assessed as reduction in LDL-c level at 20 mg/kg, ip administered every day for 6 weeks; type: functional, organism-based
Mus musculus [16] = experiment: Anti-obesity activity in high-fat and high-cholesterol diet induced C57BL/6J mouse assessed as improvement in glucose tolerance at 20 mg/kg, ip measured after 3 weeks by GTT analysis; type: functional, organism-based
Mus musculus [17] = experiment: Anti-obesity activity in high-fat and high-cholesterol diet induced C57BL/6J mouse assessed as attenuation of insulin resistance at 20 mg/kg, ip measured after 5 weeks by ITT analysis; type: functional, organism-based
Mus musculus [18] = experiment: Anti-obesity activity in high-fat and high-cholesterol diet induced C57BL/6J mouse assessed as attenuation of hepatocyte ballooning at 20 mg/kg, ip administered every day for 6 weeks by […] staining based microscopic analysis; type: functional, organism-based
Mus musculus [19] = experiment: Anti-obesity activity in high-fat and high-cholesterol diet induced C57BL/6J mouse assessed as attenuation of fibrosis in liver at 20 mg/kg, ip administered every day for 6 weeks by Sirius red staining based microscopic analysis; type: functional, organism-based
Mus musculus [20] = experiment: Anti-obesity activity in high-fat and high-cholesterol diet induced C57BL/6J mouse assessed as reduction in liver damage by measuring reduction in alanine aminotransferase level in serum at 20 mg/kg, ip administered every day for 6 weeks; type: functional, organism-based
Mus musculus [21] = experiment: Anti-obesity activity in high-fat and high-cholesterol diet induced C57BL/6J mouse assessed as reduction in liver damage by measuring reduction in aspartate aminotransferase level in serum at 20 mg/kg, ip administered every day for 6 weeks; type: functional, organism-based
Mus musculus [22] = experiment: Anti-obesity activity in high-fat and high-cholesterol diet induced C57BL/6J mouse assessed as reduction in liver damage by measuring reduction in alkaline phosphatase level in serum at 20 mg/kg, ip administered every day for 6 weeks; type: functional, organism-based
Mus musculus [23] = experiment: Anti-obesity activity in high-fat and high-cholesterol diet induced C57BL/6J mouse assessed as reduction in liver damage by measuring reduction in cholinesterase level in serum at 20 mg/kg, ip administered every day for 6 weeks; type: functional, organism-based
Mus musculus [24] = experiment: Anti-obesity activity in high-fat and high-cholesterol diet induced C57BL/6J mouse assessed as reduction in liver damage by measuring reduction in LDH level in serum at 20 mg/kg, ip administered every day for 6 weeks; type: functional, organism-based
3T3-L1 [25] = experiment: Anti-adipogenic activity in mouse 3T3-L1 cells assessed as lipid-lowering activity during the adipogenesis stage at 0.2 to 1.0 uM measured after 0 to 3 days; type: functional, cell-based; settings: dose 0.2-1 µM, time 0-3 day
3T3-L1 [26] = experiment: Anti-adipogenic activity against mouse 3T3-L1 cells assessed as change in phosphorylated AMPK alpha level; type: functional, cell-based
3T3-L1 [27] = experiment: Anti-adipogenic activity against mouse 3T3-L1 cells assessed as decrease in PPAR gamma mRNA expression at 0.2 to 0.8 uM incubated for 3 days by RT-PCR analysis; type: functional, cell-based; settings: dose 0.2-0.8 µM, time 3.0 day
3T3-L1 [28] = experiment: Anti-adipogenic activity against mouse 3T3-L1 cells assessed as decrease in C/EBP alpha mRNA expression at 0.2 to 0.8 uM incubated for 3 days by RT-PCR analysis; type: functional, cell-based; settings: dose 0.2-0.8 µM, time 3.0 day
3T3-L1 [29] = experiment: Anti-adipogenic activity against mouse 3T3-L1 cells assessed as decrease in Fasn mRNA expression at 0.2 to 0.8 uM incubated for 3 days by RT-PCR analysis; type: functional, cell-based; settings: dose 0.2-0.8 µM, time 3.0 day
3T3-L1 [30] = experiment: Anti-adipogenic activity against mouse 3T3-L1 cells assessed as increase in Cpt1 alpha mRNA expression at 0.2 to 0.8 uM incubated for 3 days by RT-PCR analysis; type: functional, cell-based; settings: dose 0.2-0.8 µM, time 3.0 day
3T3-L1 [31] = experiment: Anti-adipogenic activity against mouse 3T3-L1 cells assessed as increase in Mcad mRNA expression at 0.2 to 0.8 uM incubated for 3 days by RT-PCR analysis; type: functional, cell-based; settings: dose 0.2-0.8 µM, time 3.0 day
Mus musculus [32] = experiment: Inhibition of lipid synthesis in high-fat and high-cholesterol diet induced C57BL/6J mouse assessed as downregulation of ACC protein expression at 20 mg/kg, ip administered for 6 weeks by Western blotting analysis; type: functional, organism-based
Mus musculus [33] = experiment: Inhibition of lipid synthesis in high-fat and high-cholesterol diet induced C57BL/6J mouse assessed as downregulation of FASN protein expression at 20 mg/kg, ip administered for 6 weeks by Western blotting analysis; type: functional, organism-based
Mus musculus [34] = experiment: Inhibition of lipid synthesis in high-fat and high-cholesterol diet induced C57BL/6J mouse assessed as downregulation of ACLY protein expression at 20 mg/kg, ip administered for 6 weeks by Western blotting analysis; type: functional, organism-based
Mus musculus [35] = experiment: Inhibition of lipid synthesis in high-fat and high-cholesterol diet induced C57BL/6J mouse assessed as downregulation of FABP4 protein expression at 20 mg/kg, ip administered for 6 weeks by Western blotting analysis; type: functional, organism-based

`CC(=O)c1c(-c2nccc(NCCN3CCCC3)n2)[nH]c2ccccc12` showed an Activity (3T3-L1 [1]) of 100.7%, an EC50 (3T3-L1 [2]) of 0.106 µM and an AUC(0-t) at 24 h [3] of 219 ng·h/mL. It also gave an AUC(0-inf) [4] of 225 ng·h/mL, an MRT last at 24 h [5] of 1.6 h and a half-life [6] of 2.9 h. It also gave an AUC(0-t) at 24 h [7] of 1380 ng·h/mL, an AUC(0-inf) [8] of 1470 ng·h/mL and an MRT last at 24 h [9] of 5.2 h. For the same compound, the Vd/F [10] was 65.2 L/kg, the CL/F [11] was 255 mL/min/kg and the bioavailability [12] was 63%. For the same compound, the bioavailability [13] was 65.5%, the EC50 (Adipocyte) was 0.289 µM and the Activity (Mus musculus [14]) was “Active”. The Activity (Mus musculus [15]) was “Active”, the Activity (Mus musculus [16]) was “Active” and the Activity (Mus musculus [17]) was “Active”. The Activity (Mus musculus [18]) was “Active”, the Activity (Mus musculus [19]) was “Active” and the Activity (Mus musculus [20]) was “Active”. The Activity (Mus musculus [21]) was “Active”, the Activity (Mus musculus [22]) was “Active” and the Activity (Mus musculus [23]) was “Active”. For the same compound, the Activity (Mus musculus [24]) was “Active”, the Activity (3T3-L1 [25]) was “Active” and the Activity (3T3-L1 [26]) was “inactive”. For the same compound, the Activity (3T3-L1 [27]) was “Active”, the Activity (3T3-L1 [28]) was “Active” and the Activity (3T3-L1 [29]) was “Active”. For the same compound, the Activity (3T3-L1 [30]) was “Active”, the Activity (3T3-L1 [31]) was “Active” and the inhibition (Mus musculus [32]) was “Active”. The inhibition (Mus musculus [33]) was “Active”, the inhibition (Mus musculus [34]) was “Active” and the inhibition (Mus musculus [35]) was “Active”.
